From patent publication US10766914B2, “DNA alkylating agents” (OBI PHARMA, INC., priority 2015, dated 2020)

Experiments:
[1] = system: SNU-423; experiment: TH2870 sensitivity in liver cancer cells; type: cell-based, human; conditions: AKR1C3 expression +
[2] = system: H460 cells; experiment: Proliferation assay in H460 cells (2 hr exposure, AlamarBlue); type: cell-based, human; conditions: Homo sapiens, NCI-H460, 2 hrs exposure, wash, 70 hrs growth, read-out: IC 50 in proliferation assay in H460 cells
Outline: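 H460 cells seeded at 4×10^3/well, grown 24 h, then exposed to compound for 2 h at 37 °C. Drug was washed off and cells were regrown 70 h in fresh medium. Viable cells were read by AlamarBlue, and IC50 was taken as the concentration giving 50% growth inhibition.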

[3] = system: LIXC-012; experiment: TH2870 sensitivity in liver cancer cells; type: cell-based, human; conditions: AKR1C3 expression ++++
[4] = system: LIXC-086; experiment: TH2870 sensitivity in liver cancer cells; type: cell-based, human; conditions: AKR1C3 expression ++++
[5] = target: T1, AKR1C3 (Homo sapiens, UniProt P42330); experiment: Activation by the aldoketo reductase AKR1C3 (% remaining, LC/MS/MS); type: biochemical; conditions: for % Remaining: 5 μM, 25 μg/mL AKR1C3, 2 mM NADPH, 37° C.
T1 sequence (P42330 1-323): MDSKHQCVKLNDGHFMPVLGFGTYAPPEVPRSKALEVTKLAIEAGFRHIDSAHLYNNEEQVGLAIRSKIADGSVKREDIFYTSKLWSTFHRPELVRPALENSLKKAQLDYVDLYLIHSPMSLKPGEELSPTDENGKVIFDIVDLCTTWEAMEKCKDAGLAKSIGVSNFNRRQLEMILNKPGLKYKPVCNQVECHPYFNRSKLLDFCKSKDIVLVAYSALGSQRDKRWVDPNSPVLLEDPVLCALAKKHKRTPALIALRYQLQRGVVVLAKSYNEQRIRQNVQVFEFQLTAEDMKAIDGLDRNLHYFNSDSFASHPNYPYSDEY
Description: Recombinant human AKR1C3 was diluted to 25 μg/mL in phosphate buffered saline (PBS), pH 7.4 (37° C.), containing 2 mM NADPH. TH2870 or progesterone (positive control) in 30% methanol/70% water was added to the reaction mixture at a final concentration of 5 μM and incubated at 37° C. for 120 minutes. At various times up to 120 min, 50 μL of the reaction mixture was taken and 200 μL acetonitrile containing propranolol as internal standard was added, vortex-mixed and centrifuged for 10 min. The resulting supernatant (5 μL) was injected into a LC/MS/MS for quantitation of % remaining TH2870 and progesterone. The compounds were tested in duplicate.

[6] = system: SK-HEP-1; experiment: TH2870 sensitivity in liver cancer cells; type: cell-based, human
[7] = system: LNCap; experiment: TH2870 sensitivity in prostate cancer cell lines; type: cell-based; conditions: Homo sapiens
[8] = Example 4-B body weight change, A549 xenograft study; type: in vivo, female nude mice (nu/nu); conditions: 20 mg/kg ip QD × 5/wk × 2 wks
[9] = system: SNU-387; experiment: TH2870 sensitivity in liver cancer cells; type: cell-based, human; conditions: AKR1C3 expression ++++
[10] = system: C3A; experiment: TH2870 sensitivity in liver cancer cells; type: cell-based, human; conditions: AKR1C3 expression ++++
[11] = system: MDA-Pca-2b; experiment: TH2870 sensitivity in prostate cancer cell lines; type: cell-based; conditions: Homo sapiens
[12] = system: LIC-0903; experiment: TH2870 sensitivity in liver cancer cells; type: cell-based, human; conditions: AKR1C3 expression ++++
[13] = system: LIXC-066; experiment: TH2870 sensitivity in liver cancer cells; type: cell-based, human; conditions: AKR1C3 expression ++
[14] = system: JHH-7; experiment: TH2870 sensitivity in liver cancer cells; type: cell-based, human
[15] = system: HLE; experiment: TH2870 sensitivity in liver cancer cells; type: cell-based, human; conditions: AKR1C3 expression ++
[16] = Homo sapiens, read-out: RelIC50

**Q.** Which “Max Inhibition %” value [1] does the source give for `CC(OP(=O)(N1CC1)N1CC1)c1ccc([N+](=O)[O-])c(Oc2cccc(C(=O)N(C)C)c2)c1` (centres unmarked) [Compound 2870] here?
**A.** The value was 43.3%.

**Q.** And the IC50 [1, 16]?
**A.** Its IC50 is over 1000 nM.

**Q.** And the IC50 [2]?
**A.** The IC50 was 0.4 nM.

**Q.** What about the “Max Inhibition %” value [3] of the same compound?
**A.** Its value is 87.1%.

**Q.** And the “Max Inhibition %” value [4]?
**A.** Its value is 92.8%.

**Q.** What about the IC50 [4, 16] of the same compound?
**A.** The IC50 was 41 nM.

**Q.** What about the “% Remaining” value ([5]; 0 min) of the same compound?
**A.** Its value is 100%.

**Q.** What about the “% Remaining” value ([5]; 15 min) of the same compound?
**A.** The value was 0.232%.

**Q.** What about the “% Remaining” value ([5]; 30 min) of the same compound?
**A.** Its value is 0.0101%.

**Q.** And the “% Remaining” value ([5]; 60 min)?
**A.** The value was 0.00%.

**Q.** What about the “% Remaining” value ([5]; 90 min) of the same compound?
**A.** Its value is 0.00%.

**Q.** What about the “% Remaining” value ([5]; 120 min) of the same compound?
**A.** Its value is 0.00%.

**Q.** What about the “disappearance in the presence of AKR1C3” value ([5]; in words) of the same compound?
**A.** The value was “rapid disappearance”.

**Q.** What about the “Max Inhibition %” value ([6]; AKR1C3 expression /) of the same compound?
**A.** The value was 44.3%.

**Q.** And the IC50 ([6]; Homo sapiens, SK-HEP1, AKR1C3 expression /, read-out: RelIC50)?
**A.** The IC50 was over 1000 nM.

**Q.** What about the IC50 [7] of the same compound?
**A.** The IC50 was 162 nM.

**Q.** And the “Max. BW loss %” value [8]?
**A.** Its value is 1.6%.

**Q.** What about the “Max Inhibition %” value [9] of the same compound?
**A.** Its value is 102.8%.

**Q.** What about the “Max Inhibition %” value [10] of the same compound?
**A.** Its value is 98.1%.

**Q.** And the IC50 [10, 16]?
**A.** Its IC50 is 7.1 nM.

**Q.** What about the IC50 [11] of the same compound?
**A.** Its IC50 is over 300 nM.

**Q.** And the “Max Inhibition %” value [12]?
**A.** The value was 96.3%.

**Q.** What about the IC50 [12, 16] of the same compound?
**A.** Its IC50 is 81.9 nM.

**Q.** And the “Max Inhibition %” value [13]?
**A.** The value was 75.4%.

**Q.** And the IC50 [13, 16]?
**A.** Its IC50 is 94.1 nM.

**Q.** What about the “Max Inhibition %” value ([14]; AKR1C3 expression +++) of the same compound?
**A.** The value was 69.8%.

**Q.** And the IC50 ([14]; Homo sapiens, JHH7, AKR1C3 expression +++, read-out: RelIC50)?
**A.** Its IC50 is 107 nM.

**Q.** And the “Max Inhibition %” value [15]?
**A.** The value was 80.5%.

**Q.** And the IC50 [15, 16]?
**A.** The IC50 was 84.2 nM.
